This is an account of results in patent US10501413B2, “Inhibitors of the Notch transcriptional activation complex and methods for use of the same” (UNIVERSITY OF MIAMI, priority 2015, dated 2019).

In the assay the target is T1, Notch transcriptional activation complex (CSL, Notch1, MAML1 on DNA) (Homo sapiens, UniProt P46531+Q06330).
T1 construct: the intracellular domain of Notch (“NICD”); made in house; host or cells: SF21 insect cells (baculovirus)
As to the kind of experiment: Notch complex assembly assay (ALPHASCREEN). In kind it is biochemical. From the text: An in vitro assay was developed to monitor the assembly of the Notch transcriptional complex (“NTC”) on DNA. The NTC, which includes the Notch, Mastermind (“MAML1”), and CSL proteins, binds to a specific DNA sequence in a CSL-dependent manner. For the assay, baculovirus produced CSL, Notch, and MAML1 were mixed together with a biotinylated DNA oligomer containing the CSL target sequence. Assembly of the NTC on DNA was then monitored with the proximity-based ALPHASCREEN (Perkin Elmer) using streptavidin and protein A beads (FIGS. 1A and 1B). A signal results when MAML1 is recruited to CSL bound DNA.
All recombinant proteins were expressed using baculovirus expression vectors in SF21 cells and purified. Unless otherwise stated, all assays contained 125 fmol of double stranded oligonucleotide, CSL, Notch1 and MAML1 proteins. Reactions were carried out in Tris-buffered saline with 0.1% Tween (“TBS-T”) buffer containing 0.2% bovine serum albumin (“BSA”) and 100 ug/mL salmon sperm DNA. Briefly, the Notch complex was assembled on a biotinylated double stranded (“DS”) oligonucleotide harboring one CSL binding site (5′-[…]-3′). Complex assembly was quantitated using ALPHASCREEN technology (Perkin Elmer). Proteins in the complexes were detected using specific antibodies to either MAML1 (Cell signaling, D3K7B), Notch1 (Abcam, 52627) or CSL (anti-His, Abcam 18184). Streptavidin conjugated acceptor beads (Perkin Elmer, 6760002) were used to bind the DS oligonucleotide, and Protein-A conjugated donor beads (Perkin Elmer, 6760137) were used to detect antibody-coated proteins. For screening compounds, Notch transcriptional activation complex (“NTC”) components were added to wells that already contained the inhibitor to be assayed and allowed to incubate for 30 minutes. The ALPHASCREEN plate (Perkin Elmer, 6008350) was then read on an Envision Plate reader (Perkin Elmer) as specified by the manufacturer.
Determination of Equilibrium Dissociation Constants (KD) and Half Maximal Inhibitory Concentrations (IC50)

T1 sequence (P46531 1754-2555 limits assumed): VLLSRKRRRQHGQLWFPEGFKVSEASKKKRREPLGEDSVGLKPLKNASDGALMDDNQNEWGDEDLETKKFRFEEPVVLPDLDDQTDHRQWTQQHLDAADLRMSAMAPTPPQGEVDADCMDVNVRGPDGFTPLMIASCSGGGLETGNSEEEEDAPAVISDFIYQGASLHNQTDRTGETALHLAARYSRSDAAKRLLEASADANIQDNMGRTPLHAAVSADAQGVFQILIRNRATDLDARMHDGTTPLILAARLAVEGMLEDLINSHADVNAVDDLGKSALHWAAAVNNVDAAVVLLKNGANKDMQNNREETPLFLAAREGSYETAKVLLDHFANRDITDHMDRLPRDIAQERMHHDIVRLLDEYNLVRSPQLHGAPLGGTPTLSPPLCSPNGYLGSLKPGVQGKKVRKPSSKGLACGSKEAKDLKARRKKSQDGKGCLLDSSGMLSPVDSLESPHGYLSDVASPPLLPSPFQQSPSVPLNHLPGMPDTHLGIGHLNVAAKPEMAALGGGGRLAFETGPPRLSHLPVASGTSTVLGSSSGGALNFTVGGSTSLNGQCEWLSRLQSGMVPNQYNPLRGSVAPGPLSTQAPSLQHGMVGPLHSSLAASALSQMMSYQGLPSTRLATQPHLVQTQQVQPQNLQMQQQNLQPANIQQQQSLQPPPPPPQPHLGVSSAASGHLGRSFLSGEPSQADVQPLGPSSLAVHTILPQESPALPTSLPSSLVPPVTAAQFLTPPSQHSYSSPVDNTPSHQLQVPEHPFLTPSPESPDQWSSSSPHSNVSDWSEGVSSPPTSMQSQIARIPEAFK
T1 sequence (Q06330 whole entry, the tested form may be a part): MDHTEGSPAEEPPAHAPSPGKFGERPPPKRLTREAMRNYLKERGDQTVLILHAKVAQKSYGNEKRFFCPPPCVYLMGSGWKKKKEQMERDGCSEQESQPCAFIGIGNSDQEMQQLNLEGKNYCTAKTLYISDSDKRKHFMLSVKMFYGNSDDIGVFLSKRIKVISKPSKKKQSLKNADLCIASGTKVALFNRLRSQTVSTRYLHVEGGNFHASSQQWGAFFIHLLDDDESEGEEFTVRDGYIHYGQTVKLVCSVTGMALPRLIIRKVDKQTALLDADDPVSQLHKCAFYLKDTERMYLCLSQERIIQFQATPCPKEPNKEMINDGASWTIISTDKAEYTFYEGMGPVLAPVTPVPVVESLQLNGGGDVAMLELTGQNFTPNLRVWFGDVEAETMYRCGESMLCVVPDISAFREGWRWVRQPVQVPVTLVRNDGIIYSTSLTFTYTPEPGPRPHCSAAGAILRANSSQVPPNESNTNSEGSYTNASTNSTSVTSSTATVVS

Regarding `CCOC(=O)COc1ccc(/C=C2\SC(=S)NC2=O)cc1OC` [1-134-83], the IC50 (as a rule, the concentration that inhibits the measured activity by half) was determined as 26 µM.
